Reference: a melting point compilation (Tetko et al.; mined from patent text by program, amines drawn as free bases though some values may be those of a salt)
Residues, ends and D or L forms follow the SMILES beside them. *: point of attachment. Tos = Cc1ccc(S(=O)(=O)*)cc1

SMILES	melting point
COc1ccc(C(C#N)=NO)cc1OC	183 to 191 °C
CCCCNS(=O)(=O)CC(O)C(O)C(CC1CCCCC1)NC(=O)C(CC)Cc1c[nH]cn1 (stereo unspecified)	60 to 90 °C
CC(C)(Oc1ccc(C#N)cc1Cl)c1ccccc1	60 to 62 °C
COc1ccc2cc(C(C)C(=O)OCC(=O)OCCO)ccc2c1 (stereo unspecified)	87 to 90 °C
COc1cc(NC(N)=O)c2c(c1)OC(C)C2 (stereo unspecified)	204 °C
CNC(=O)Nc1ccc(OC)c(-c2ccc(C[C@H](NC(=O)c3c(Cl)cccc3Cl)C(=O)O)cc2)c1OC	236 to 237 °C
COc1cc(C)cc(OC)c1NC(=O)CNC(=O)OC(C)(C)C	146 °C
c1ccc2c(c1)OP(N(C1CCCCC1)C1CCCCC1)c1ccccc1-2 (stereo unspecified)	162 °C
O=C(O)CC1CCC2(CC1)OCCO2	110 to 113 °C
CN(C)C(=O)c1ccc2c(c1)C(=NNc1ccc(S(N)(=O)=O)cc1)C(=O)N2	> 230 °C
Cc1c(CCO)c2cc(OCc3csc(-c4ccccc4)n3)ccc2n1Cc1ccccc1	114 to 116 °C
Cc1cccc(CCOc2ccc([N+](=O)[O-])cc2)n1	61 to 62 °C
COc1cc(COc2ccc3nc(NC(=O)Oc4ccccc4)cn3n2)cc(OC)c1OC	210 to 213 °C
CC(C)(C)c1ccc(Oc2ccc([N+](=O)[O-])cc2C(=O)Nc2ccccc2)cc1	138 to 140 °C
CCN1CCc2ccc(Nc3ncc(Cl)c(NCC(C)(C)NS(C)(=O)=O)n3)cc2CC1	118 to 121 °C
CCCCCCCCCCCCCCCc1ccc2c(c1)C1(O)C(=O)c3ccccc3C1(O)O2 (stereo unspecified)	105 to 110 °C
Cc1cc(NS(=O)(=O)c2cc(C3(O)CCC(=O)N3C)ccc2Cl)cc(C(C)(C)C)c1O (stereo unspecified)	120 °C
C=CCOc1ccc([C@H]2CCN(C(=O)OC(C)(C)C)C[C@@H]2O)cc1 (racemic)	113 °C
CC(C)(C)c1ccc(OCCCCCCCCCCC(Cl)(Cl)C(=O)O)cc1	56 to 57 °C
Cc1nnc(-c2ccc3occ(-c4ccc(C(=O)O)cc4Cl)c3c2)o1	267 to 268 °C
CCOc1c(OC)c(OC)cc(C(=O)OC)c1-c1c(C(=O)OC)cc(OC)c2c1OCO2	93 to 94 °C
C=Cc1ccc(Cc2ccc(C=C)cc2)cc1	30 to 33 °C
CCCCc1nn(-c2cc(NC(C)=O)ccc2Cl)c(=O)n1Cc1ccc(-c2cc(CCC)ccc2S(=O)(=O)NC(=O)c2ccccc2F)cc1F	148 to 150 °C
CCN1CCc2ccc(Nc3ncc(Cl)c(NC4CCCCNC4=O)n3)cc2CC1 (stereo unspecified)	232 to 234 °C
CC12CCC(O)CC1CCC1C2CCC2(C)C(C(=O)COc3cccnc3)CCC12 (stereo unspecified)	63 to 66 °C
OCC1OC(n2cnc3c(Nn4ccc5ccccc54)ncnc32)C(O)C1O (stereo unspecified)	155 °C
COC(=O)C(C)(C)Cc1ccc(OCc2oc(-c3ccc(C(F)(F)F)cc3)cc2C(=O)O)cc1	153 to 155 °C

SMILES	melting point
O=c1ccoc2c(CCCc3ccccc3)c(OCc3ccccc3)ccc12	106 to 108 °C
COc1c2c(c(OC)c(OC)c1OC)CC(CCCCCCCCOC(C)=O)C2	47 to 48 °C
Cc1cc(N2CCN(c3nc(-c4ccccc4)nc(C)c3C)CC2)cc(C)c1O	188 to 189 °C
N#Cc1cccc(N2CCc3cc(OCc4ccccc4)ccc32)c1	102 to 104 °C
N=C(NCCN1CCC(Nc2nc3ccccc3n2Cc2ccc(F)cc2)CC1)N[N+](=O)[O-]	147 °C
N#Cc1cccc(-c2ccc(=O)n(Cc3cccc(-c4ncc(O)cn4)c3)n2)c1	245 to 248 °C
O=c1[nH]c2ccc(OC3CCCC3)cc2n1C1CCCCC1	242 °C
COc1ccc(C(=O)c2ccc(OCc3nc(-c4ccccc4)oc3C)cc2)c(OC(C)C(=O)O)c1 (stereo unspecified)	100 to 102 °C
CCN(CC)CCOC1CCC2C3CCc4cc(OC)ccc4C3CCC12CC (stereo unspecified)	66 to 67 °C
Cc1c(C(=O)Nc2ccc(SCCCN3CCCCC3)c(C#N)c2)cnn1-c1ccc(Cl)cc1	142 °C
CCC(CC)N(C)Cc1ccc(NC(=O)C2=Cc3cc(-c4ccc(C)cc4)ccc3SCC2)cc1	136 to 137 °C
CC12CCC(C1)C1(C)Oc3ccc(C(O)c4ccc5cc(C(=O)O)ccc5c4)cc3C21C (stereo unspecified)	146 to 148 °C
Cc1ncc([N+](=O)[O-])n1CCn1c(=O)[nH]c2ccccc2c1=O	261 to 264 °C
CCN1CC(NC(=O)c2ccc(F)cc2)CN1CC	114 to 116 °C
C[C@H](NC(=O)COCCN1C(=O)c2ccccc2C1=O)C(=O)N[C@H](CCC(=O)OCc1ccccc1)C(N)=O	205 to 206 °C
C=C(CCC(C)C1CCC2(C)C3CCC4C(C)(C)C(O)CCC45CC35CCC12C)C(C)C (stereo unspecified)	123 to 124 °C
Cc1cc(C)c(C(=O)P(=S)(C(=O)c2c(C)cc(C)cc2C)c2ccccc2)c(C)c1	123 °C
CCCn1c(=O)c2c(nc(C=Cc3cc(OC)c(OC)c(OC)c3S(=O)(=O)O)n2C)n(CCC)c1=O	248 to 250 °C
O=Cc1ccc(-c2ccc3ncnc(Nc4ccc(OCc5cccc(F)c5)c(Cl)c4)c3c2)s1	252 °C
CCC(=O)/C=C/c1cn(-c2ccccc2)nc1OCc1ccc(OCc2nc(-c3ccco3)oc2C)c(OC)c1	167 to 168 °C
CN(C)CCNC(=O)C(Sc1nc2cc(Cl)ccc2s1)c1ccccc1 (stereo unspecified)	108 to 109 °C
Cc1cc(NCc2ccccc2)c([N+](=O)[O-])c(=O)[nH]1	246 to 247 °C
Cc1ccc(S(=O)(=O)OCC2Cc3cccc(O)c3O2)cc1 (stereo unspecified)	122 to 125 °C
O=C(O)c1ncccc1Cl	126 to 128 °C
NCC1Cc2cc(Cl)cc(-c3ccc(F)c(F)c3)c2O1 (stereo unspecified)	> 250 °C
O=C(O)c1ccc2cc(OCCC(c3ccccc3)(c3ccccc3)c3ccccc3)ccc2c1	243 to 244 °C
CC1Cc2cc3c(cc2C(c2ccc([N+](=O)[O-])cc2)=NN1c1ncccn1)OCO3 (stereo unspecified)	261 to 263 °C

Results, then the molecule that gave them:

melting point	SMILES
116 to 117 °C	Cc1oc(-c2ccccc2)nc1COc1ccc(CON=C(CCC(=O)O)c2ccccn2)cc1
101 °C	CCCCCCCc1ccc(C(=O)CCCC(=O)O)cc1
140 to 141 °C	Cc1cc(C(N)=O)c(N)s1
160 to 162 °C	Cc1ccc(S(=O)(=O)N2CCC[C@H]2C(=O)N[C@@H](C)C(=O)O)cc1 (Tos-Pro-Ala-OH)
145 °C	CN(C)C=CC(=O)c1ccc(OC[C@H]2CO[C@](Cn3ccnc3)(c3ccc(Cl)cc3Cl)O2)cc1 (relative stereo)
213 to 223 °C	CCCCCCCCCCCCCCCCOC[C@@H]1OCC[C@H]1OP(=O)([O-])OCC[N+](C)(C)C (relative stereo)
230 to 232 °C	COc1c(Oc2ccc3ncc([N+](=O)[O-])n3n2)cnc(CNc2nc(C)nc(C)c2Cl)c1C
136 to 137 °C	CCC(OC)c1ccc(Cl)c2nc3n(c12)CCCN3c1ccc(Cl)cc1Cl (stereo unspecified)
167 to 168 °C	NCCCCc1ccc(C2=NNC(=O)CC2)cc1
205 to 207 °C	COC(=O)c1cc(Nc2ccc(C)cc2)c(C(=O)OC)cc1Nc1ccc(C)cc1
81 to 83 °C	CC(C)(C)N1CC(c2cccc(C(F)(F)F)c2)OCC1=O (stereo unspecified)
107 °C	c1ccc(-n2c(-c3ccc(OCCN4CCCCC4)cc3)nc3ccccc32)cc1
135 to 136 °C	CC1=C(C(=O)OCCC#N)C(c2c(F)cccc2Cl)C(C(=O)OC2CCCC2)=C(C)N1 (stereo unspecified)
81 to 83 °C	O=c1ccc2ccc(CNCCNc3ccccc3)cc2o1
> 200 °C	NNC(=O)c1ccc(N2CCNC2=O)cc1
131 to 135 °C	CCn1cnc2c(Nc3ccc(NC(=O)OC)cc3)nc(N[C@H]3CC[C@H](O)CC3)nc21
86 to 87 °C	COc1cc(C(=O)C(C)C)ccc1O
179 to 181 °C	CN(Cc1cc(C(F)(F)F)cc(C(F)(F)F)c1)C(=O)c1c(-c2ccc(F)cc2)c2ccncc2c(=O)n1C
91 to 92 °C	CCCCc1nc(C(=O)CCC)c(C#N)[nH]1
72 to 74 °C	CC(=O)C(C(=O)c1ccccc1)N(C)C (stereo unspecified)
240 to 242 °C	COc1ccc(N2CCOCC2)c2sc(NC(=O)N(C)C3CCOCC3)nc12

melting point	SMILES
168 °C	CC(C)(C)c1ccc2occ(N)c(=S)c2c1
253 to 254 °C	Cc1nc(-c2ccc3c(c2)c2cc(-c4ccc(Cl)cc4Cl)c(=O)n(C)c2n3C)cs1
130 °C	CN(C)CCCn1c(-c2ccccc2)cc2cc(O)ccc21
191 to 192 °C	COc1ccc(C(=O)Nc2cccnc2)cc1NC(=S)Nc1cccc(C(=O)O)c1
139 to 141 °C	CCOc1ccc(C2=NN(C3CCN(C(=O)N4CCOCC4)CC3)C(=O)[C@@H]3CC=CC[C@H]23)cc1OCC
60 to 61.5 °C	COc1ccc(C(=O)CC2CCCC2)c(Cl)c1Cl
168 °C	CN(C(=O)CN(C(=O)CN1C(=O)c2ccccc2C1=O)c1ccccc1Cl)c1ccccc1
183 to 186 °C	N#Cc1c(N2CCc3ccccc3CC2)[nH]c(=O)[nH]c1=O
188 to 191 °C	CC(=O)c1c(O)ccc2[nH]ncc12
109 to 110 °C	Cc1ncn(-c2ccccc2C#N)n1
162 to 165 °C	CCC(=O)Nc1c(-c2c(F)cc(F)cc2F)c(Cl)nc2ncnn12
178 to 179 °C	O=C(/C=C/c1ccc(S(=O)(=O)N2CCN(c3cccc(C(F)(F)F)c3)CC2)cc1)NO
58 to 62 °C	CN(CCCc1ccccc1)[C@H]1CC[C@H](c2ccc3[nH]c(=O)oc3c2)CC1
144 to 146 °C	CC(C)(C)OC(=O)N1CCN(c2ccc(N3CC(CO)OC3=O)cc2F)CC1 (stereo unspecified)
155 to 157 °C	COCCOC(=O)c1ccc(C(C(N)=O)C(C)c2ccccc2N2CCCCC2)cc1 (stereo unspecified)
111 to 112 °C	O=C(Nc1ccccc1)c1cccc(Oc2ccccc2)c1
118 to 120 °C	C1=Nc2ccccc2N2CCCc3cccc1c32
91 to 93 °C	CSc1cc2c(cc1C(F)(F)F)N(C(=O)Nc1cccc(C(=O)NCCN3CCCC3)c1)CC2
157 to 158 °C	COC(=S)NC[C@H]1CN(c2ccc(-c3nc(Cn4cccn4)cs3)c(F)c2)C(=O)O1
175 to 178 °C	O=C(NC[C@H]1CN(c2ccc(N3CCC4(CC3)OCCO4)c(F)c2)C(=O)O1)C(Cl)Cl
53 to 56 °C	OCCCCCCOc1ccc2ccccc2c1
